Test results from PMC10212513, “Site IQ in mitochondrial complex I generates S1QEL-sensitive superoxide/hydrogen peroxide in both the reverse and forward reactions” (Biochemical Journal, 2023).
Where two headings read alike, the source gives them in different places.

Legend:
site IQf in complex I = assay: Amplex UltraRed assay of superoxide/hydrogen peroxide production during forward electron transport (glycerol 3-phosphate plus 50 µM glutamate plus malate); assay type: biochemical, rat
Protocol: Cuvette- and plate-based assays of superoxide/hydrogen peroxide production during RET using 12.5 mM G3P (or during FET using 12.5 mM G3P, 50 µM glutamate plus 50 µM malate) as substrate were conducted at 37°C as described [45] using 0.2 mg of mitochondrial protein/ml in 3 ml (plastic cuvettes, Varian Cary Eclipse spectrofluorometer (Ex 560 nm/Em 590 nm)) or 0.2 mg mitochondrial protein/ml, 0.01 mg/well (Pherastar FS (BMG) fluorescence microplate reader, Ex 540 nm/Em 590 nm), in KHEB medium (120 mM KCl, 3 mM HEPES, 1 mM EGTA, 0.3% w/v bovine serum albumin, pH 7.4) containing 25 U/ml SOD1, 25 µM Amplex Ultrared, and 5 U/ml HRP, plus dimethyl sulfoxide (DMSO) or treatments as indicated.

[1] = test system: isolated rat skeletal muscle mitochondria; assay type: biochemical
Protocol: Mitochondria were immobilised in coverglass-bottomed 96-well microplates (Greiner Sensoplate) by centrifugation for 15 min at 1000 g in KHEB medium at 4°C. The microplate was warmed in the 37°C heated environment chamber of a Nikon Eclipse Ti-PFS fully motorised wide-field fluorescence microscope equipped with a Lambda 821 LED light source with Lambda 10-3 emission filter wheel and Andor iXon Life 888 EMCCD camera, controlled by NIS Elements 5.20. TMRM (100 nM) was added to the wells, and in successive additions substrates were added without changing the TMRM concentration. TMRM was imaged using a Super Fluor 40× NA1.3 oil lens, a 586/20 nm excitation filter on a 560 nm LED, a 593 nm dichroic mirror, and a 641/75 nm emission filter capturing the centre 512 × 512 pixels area of the camera with no binning and with 1.5× optical zoom (0.17 µm/pixel resolution). Multiple (typically 25) view fields were recorded in one to three wells for 3 time points per substrate condition. In some experiments, TMRM imaging was followed by recording frames of NAD(P)H autofluorescence in the same view fields using a 340 nm LED, 414 nm dichroic mirror and 460/80 nm emission filter. The first autofluorescence frame matched the substrate condition of the last TMRM frame and then the recording of three more frames followed the application of rotenone (4 µM) or FCCP (4 µM) by 1 min delay. Recordings were analysed in Image Analyst MKII 4.2.1 (Image Analyst Software, Novato, CA) by performing image registration, background subtraction and ROI-based intensity measurement. Background was subtracted first as a blank image and then frame-by-frame using the ‘Mean of pixels below percentile of max projection (dilated mask)' method. Single-mitochondria ROIs were generated by morphological segmentation using a modification of the ‘Mitochondria : cell volume fractionator (basic)' standard pipeline. ΔψM was calculated using the Nernst equation. Because fluorescence was small in the absence of substrates, polarisation by G + M was calculated from TMRM fluorescence intensities (FTMRM) by comparison to succinate as 61 mV × log(FTMRM_G + M/FTMRM_succinate), which expresses how much less polarisation was provided by G + M than succinate, in millivolts. Polarisation by G3P was calculated by comparison to G + M as 61 mV × log(FTMRM_G3P/FTMRM_G + M), which expresses the millivolts hyperpolarisation when G3P is added in the presence of G + M. Changes in NAD(P)H autofluorescence (ΔNADH) were expressed as the observed fluorescence intensity change normalised to the population mean fluorescence before rotenone (or FCCP) addition. […] This was then converted to log2-fold changes to provide symmetrical distributions. Scatter plots were generated and analysed in Mathematica 13 (Wolfram Research).

Fa2N-4 cells [2] = assay: NAD(P)H autofluorescence two-photon imaging, single-cell analysis; assay type: cell-based
Protocol: Subcellular resolution micrographs of NAD(P)H autofluorescence were recorded using an upright Zeiss LSM 7MP multiphoton microscope, equipped with a Chameleon Vision II mode-locked laser set to 710 nm (1–1.5% of the 745 mW output power was used) and W Plan-Apochromat 20×/1.0 DIC M27 75 mm dipping water immersion objective lens and detection of emission between 420 and 480 nm. 1024 × 1024 pixels images (0.2 µm/pixel) were recorded at maximal scan speed and 8× frame averaging. Time courses of two frames, one before and one after the addition of rotenone (2 µM), FCCP (4 µM) or vehicle (DMSO 1 : 2000) were recorded using the Zeiss Multi Time Series macro. The cell monolayer was auto-focused at one x,y-position, and four other positions were imaged for analysis in each dish. Recordings were analysed in Image Analyst by rigid image registration, background subtraction and ROI-based intensity measurement. Unbiased single-cell ROIs were generated in using Cellpose 2.0 [48] with the ‘cyto2' neural network. Histograms were generated in Mathematica.

[3] = test system: rat skeletal muscle mitochondria; assay: Respiration of isolated mitochondria on glycerol 3-phosphate (Seahorse extracellular flux analyzer); assay type: biochemical; settings: 1–10 µM; in the presence of ADP; n = 2–3
Protocol: Mitochondrial respiration was assayed at 37°C using an Agilent Seahorse XFe-24 as described previously, using 12.5 mM G3P as substrate.

Fa2N-4 cells [4] = assay: Subcellular analysis of NAD(P)H autofluorescence (mitochondria within cells); assay type: cell-based; settings: rotenone challenge
Protocol: The NAD(P)H autofluorescence multiphoton time courses described above were de-noised by Wiener filtering, cropped based on the Cellpose ROIs resulting in 256 × 256 pixels images of single cells, and surrounding structures were masked in Image Analyst MKII. Then, to compensate for the motility of mitochondria during the time courses, B-spline-based deformable image registration was performed in Elastix 5.0.1 [49]. Image registration was quality controlled subjectively plus by calculating Pearson’s cross-correlation coefficient between before- and after-rotenone frames, and cells with a value lower than 0.6 were discarded. The pixel-by-pixel ratio of after- over before-treatment frames was calculated, masked by mitochondrial profiles generated by Otsu’s threshold method (with a logical OR of before- and after-frames), and log2 of the ratios was taken for all pixels. Image histograms were saved to Excel and analysed in Mathematica using a maximum log-likelihood method for fitting the binned log2-fold intensity values with normal distribution(s). Mock treatments were fitted well with a single, symmetric distribution. We attribute this change of pixel intensities between the consecutive frames of the time course to motility artefacts and noise. The distribution of log2-fold pixel intensity changes for rotenone-treated cells was wider, and therefore we coarsely modelled it as sum of two normal distributions (rotenone-responsive and unresponsive mitochondria, with σ matching that of the mock-treatment modelling motility and noise effects). […] This analysis was repeated for individual single cells (total 185 in three experiments).

[5] = plate-reader titrations, IQf versus IQr, 2 µM atpenin A5, 10 µM S3QEL3
[6] = rotenone 4 µM challenge, 50 µM G + M plus 12.5 mM G3P

## N#CC(C#N)=NNc1ccc(OC(F)(F)F)cc1 [FCCP]
Site IQf in complex I
  Sensitivity of superoxide/hydrogen peroxide production from site IQf compared with site IQr: equally sensitive
[1]
  Mitochondria responding with significant oxidation of NADH: 85 ± 2%
Fa2N-4 cells [2]; FCCP 4 µM
  Cells responding with a decrease in NAD(P)H autofluorescence: All cells

## COc1[nH]c(=O)c(C(=O)[C@@H](C)C[C@H](C)[C@@H](Cl)CCl)c(O)c1OC [atpenin A5]
[3]
  Effect on respiration on 12.5 mM G3P: no significant effect

## C/C=C(\C)[C@H](O)[C@H](C)/C=C(C)/C=C/C/C(C)=C/Cc1nc(OC)c(OC)c(O)c1C [piericidin A]
Site IQf in complex I; 10 µM, plate-reader
  Superoxide/hydrogen peroxide production by site IQf at highest concentration: IQf activity reappeared
Site IQf in complex I; [5]
  Sensitivity of superoxide/hydrogen peroxide production from site IQf compared with site IQr: equally sensitive

## CO[C@@H]1C[C@@H](C[C@H]2CC[C@H](C)[C@H]([C@@H](C)C(=O)O)O2)O[C@]2(O[C@](C)([C@H]3CC[C@@](C)([C@@H]4O[C@@H]([C@H]5O[C@@](O)(CO)[C@H](C)C[C@@H]5C)C[C@@H]4C)O3)C[C@H]2C)[C@@H]1C [nigericin]
Site IQf in complex I; [5]
  Sensitivity of superoxide/hydrogen peroxide production from site IQf compared with site IQr: equally sensitive

## C=C(C)[C@H]1Cc2c(ccc3c2O[C@@H]2COc4cc(OC)c(OC)cc4[C@@H]2C3=O)O1 [rotenone]
Site IQf in complex I; [5]
  Sensitivity of superoxide/hydrogen peroxide production from site IQf compared with site IQr: equally sensitive
[1]; [6]
  Mitochondria responding by significantly increasing the reduction of their NADH/NAD+ pool: 65%
  Mitochondria that did not change NAD(P)H fluorescence significantly: 30 ± 9%
[1]; rotenone 4 µM challenge, 50 µM G + M plus 12.5 mM G3P, n = 4
  Mitochondria responding by significant oxidation of NADH to NAD+: 4.2 ± 1.1%
Fa2N-4 cells [2]; rotenone challenge (4 µM in legend, 2 µM in methods), n = 4
  Cells responding with an increase in NAD(P)H autofluorescence: 97 ± 4%
Fa2N-4 cells [4]; n = 3
  Cellular mitochondria oxidising on challenge (excess pixel count): 0.5 ± 0.1%
Fa2N-4 cells [4]; n = 3 experiments, 185 cells
  Mitochondria in cells estimated to respond poorly or not at all: 26 ± 3%
  Mitochondria in cells that responded with increased fluorescence: 74 ± 3%
Fa2N-4 cells [4]; responder population
  Mean increase in NAD(P)H fluorescence intensity of responding mitochondria: 50 ± 10%
